Data as given in patent publication US11053204B2, “Pyrimidinyloxy benzene derivatives as herbicides” (FMC Corporation, priority 2015, dated 2021).

What was measured:
Experiment in all cases: Test C preemergence, plant response rating
Type in all cases: in vivo
[1] = test system: lambsquarters (Chenopodium album); details: Chenopodium album, pre-emergence, Preemergence
In short: (§1)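 Visual injury score, 0 = no effect, 100 = complete control, assigned against untreated controls after 13 to 15 d in the greenhouse. Compounds were applied in a surfactant-containing non-phytotoxic solvent mix, preemergence to seeded loam/sand or silt loam soil, or postemergence to 1- to 4-leaf plants (2 to 18 cm).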

corn (Zea mays) = details: Zea mays, pre-emergence, Preemergence
In short: as §1

[2] = test system: foxtail, giant (giant foxtail, Setaria faberii); details: Setaria faberi, pre-emergence, Preemergence
In short: as §1

[3] = test system: velvetleaf (Abutilon theophrasti); details: Abutilon theophrasti, pre-emergence, Preemergence
In short: as §1

[4] = test system: crabgrass, large (large crabgrass, Digitaria sanguinalis); details: Digitaria sanguinalis, pre-emergence, Preemergence
In short: as §1

[5] = test system: waterhemp (common waterhemp, Amaranthus rudis); details: Amaranthus tuberculatus, pre-emergence, Preemergence
In short: as §1

[6] = test system: wheat (winter wheat, Triticum aestivum); details: Triticum aestivum, pre-emergence, Preemergence
In short: as §1

[7] = test system: blackgrass (Alopecurus myosuroides); details: Alopecurus myosuroides, pre-emergence, Preemergence
In short: as §1

[8] = test system: oilseed rape (Brassica napus); details: Brassica napus, pre-emergence, Preemergence
In short: as §1

[9] = test system: ragweed (common ragweed, Ambrosia elatior); details: Ambrosia artemisiifolia, pre-emergence, Preemergence
In short: as §1

soybean (Glycine max) = details: Glycine max, pre-emergence, Preemergence
In short: as §1

[10] = test system: morningglory (Ipomoea coccinea); details: Ipomoea, pre-emergence, Preemergence
In short: as §1

[11] = test system: ryegrass, Italian (Italian ryegrass, Lolium multiflorum); details: Lolium multiflorum, pre-emergence, Preemergence
In short: as §1

[12] = test system: nutsedge, yellow (yellow nutsedge, Cyperus esculentus); details: Cyperus, pre-emergence, Preemergence
In short: as §1

[13] = test system: pigweed (Amaranthus retroflexus); details: Preemergence

SMILES: N#Cc1cccc(Oc2ncc(Cl)cn2)c1CCCCC(F)(F)F [Compound 73, 3-[(5-chloro-2-pyrimidinyl)oxy]-2-(5,5,5-trifluoropentyl)benzonitrile]
- pest or weed control at 125 g/ha ([1]; 125 g ai/ha, scale of 0 to 100): 100%
- pest or weed control at 16 g/ha ([1]; 16 g ai/ha, scale 0 to 100): 85%
- pest or weed control at 31 g/ha ([1]; 31 g ai/ha, scale 0 to 100): 90%
- pest or weed control at 62 g/ha ([1]; 62 g ai/ha, scale 0 to 100): 90%
- Corn plant response rating (crop injury, 0 = no effect, 100 = complete kill) at 62 g/ha (corn (Zea mays); 62 g ai/ha, scale of 0 to 100): 40%
- Corn plant response rating (crop injury, 0 = no effect, 100 = complete kill) at 125 g/ha (corn (Zea mays); 125 g ai/ha, scale of 0 to 100): 50%
- Corn plant response rating (crop injury, 0 = no effect, 100 = complete kill) at 16 g/ha (corn (Zea mays); 16 g ai/ha, scale 0 to 100): 0%
- Corn plant response rating (crop injury, 0 = no effect, 100 = complete kill) at 31 g/ha (corn (Zea mays); 31 g ai/ha, scale 0 to 100): 20%
- pest or weed control at 62 g/ha ([2]; 62 g ai/ha, scale of 0 to 100): 100%
- pest or weed control at 125 g/ha ([2]; 125 g ai/ha, scale of 0 to 100): 100%
- pest or weed control at 16 g/ha ([2]; 16 g ai/ha, scale 0 to 100): 98%
- pest or weed control at 31 g/ha ([2]; 31 g ai/ha, scale 0 to 100): 100%
- pest or weed control at 125 g/ha ([3]; 125 g ai/ha, scale of 0 to 100): 95%
- pest or weed control at 16 g/ha ([3]; 16 g ai/ha, scale 0 to 100): 0%
- pest or weed control at 31 g/ha ([3]; 31 g ai/ha, scale 0 to 100): 30%
- pest or weed control at 62 g/ha ([3]; 62 g ai/ha, scale 0 to 100): 75%
- pest or weed control at 62 g/ha ([4]; 62 g ai/ha, scale of 0 to 100): 100%
- pest or weed control at 125 g/ha ([4]; 125 g ai/ha, scale of 0 to 100): 100%
- pest or weed control at 16 g/ha ([4]; 16 g ai/ha, scale 0 to 100): 98%
- pest or weed control at 31 g/ha ([4]; 31 g ai/ha, scale 0 to 100): 100%
- pest or weed control at 125 g/ha ([5]; 125 g ai/ha, scale of 0 to 100): 100%
- pest or weed control at 16 g/ha ([5]; 16 g ai/ha, scale 0 to 100): 65%
- pest or weed control at 31 g/ha ([5]; 31 g ai/ha, scale 0 to 100): 100%
- pest or weed control at 62 g/ha ([5]; 62 g ai/ha, scale 0 to 100): 100%
- plant injury at 125 g/ha ([6]; 125 g ai/ha, scale of 0 to 100): 70%
- plant injury at 16 g/ha ([6]; 16 g ai/ha, scale 0 to 100): 0%
- plant injury at 31 g/ha ([6]; 31 g ai/ha, scale 0 to 100): 0%
- plant injury at 62 g/ha ([6]; 62 g ai/ha, scale 0 to 100): 30%
- pest or weed control at 62 g/ha ([7]; 62 g ai/ha, scale of 0 to 100): 100%
- pest or weed control at 125 g/ha ([7]; 125 g ai/ha, scale of 0 to 100): 100%
- pest or weed control at 16 g/ha ([7]; 16 g ai/ha, scale 0 to 100): 5%
- pest or weed control at 31 g/ha ([7]; 31 g ai/ha, scale 0 to 100): 98%
- plant injury at 125 g/ha ([8]; 125 g ai/ha, scale of 0 to 100): 65%
- plant injury at 16 g/ha ([8]; 16 g ai/ha, scale 0 to 100): 0%
- plant injury at 31 g/ha ([8]; 31 g ai/ha, scale 0 to 100): 20%
- plant injury at 62 g/ha ([8]; 62 g ai/ha, scale 0 to 100): 50%
- pest or weed control at 125 g/ha ([9]; 125 g ai/ha, scale of 0 to 100): 25%
- pest or weed control at 16 g/ha ([9]; 16 g ai/ha, scale 0 to 100): 0%
- pest or weed control at 31 g/ha ([9]; 31 g ai/ha, scale 0 to 100): 0%
- pest or weed control at 62 g/ha ([9]; 62 g ai/ha, scale 0 to 100): 10%
- plant injury at 125 g/ha (soybean (Glycine max); 125 g ai/ha, scale of 0 to 100): 40%
- plant injury at 16 g/ha (soybean (Glycine max); 16 g ai/ha, scale 0 to 100): 0%
- plant injury at 31 g/ha (soybean (Glycine max); 31 g ai/ha, scale 0 to 100): 0%
- plant injury at 62 g/ha (soybean (Glycine max); 62 g ai/ha, scale 0 to 100): 25%
- pest or weed control at 125 g/ha ([10]; 125 g ai/ha, scale of 0 to 100): 75%
- pest or weed control at 16 g/ha ([10]; 16 g ai/ha, scale 0 to 100): 0%
- pest or weed control at 31 g/ha ([10]; 31 g ai/ha, scale 0 to 100): 10%
- pest or weed control at 62 g/ha ([10]; 62 g ai/ha, scale 0 to 100): 60%
- pest or weed control at 125 g/ha ([11]; 125 g ai/ha, scale of 0 to 100): 100%
- pest or weed control at 16 g/ha ([11]; 16 g ai/ha, scale 0 to 100): 30%
- pest or weed control at 31 g/ha ([11]; 31 g ai/ha, scale 0 to 100): 35%
- pest or weed control at 62 g/ha ([11]; 62 g ai/ha, scale 0 to 100): 85%
- pest or weed control at 125 g/ha ([12]; 125 g ai/ha, scale of 0 to 100): 10%
- pest or weed control at 16 g/ha ([12]; 16 g ai/ha, scale 0 to 100): 0%
- pest or weed control at 31 g/ha ([12]; 31 g ai/ha, scale 0 to 100): 0%
- pest or weed control at 62 g/ha ([12]; 62 g ai/ha, scale 0 to 100): 0%
- Plant response rating, Pigweed ([13]; 125 g ai/ha, scale of 0 to 100): 100
- Plant response rating, Pigweed ([13]; 16 g ai/ha, scale 0 to 100): 90
- Plant response rating, Pigweed ([13]; 31 g ai/ha, scale 0 to 100): 95
- Plant response rating, Pigweed ([13]; 62 g ai/ha, scale 0 to 100): 100
